Data as given in patent US20240287102A1, “NOVEL CRYSTALLINE FORMS OF [(1R)-2-(1-BENZOFURAN-3-YL)-1-{[(1S,2R,4R)-7-OXABICYCLO[2.2.1]HEPTAN-2-YL]FORMAMIDO}ETHYL]BORONIC ACID, ADDUCTS THEREOF, AND PROCESSES TO OBTAIN” (Merck Patent GmbH, priority 2021, published 2024).
≈ marks a conversion by molar mass, not a printed value. Like-named read-outs stand apart in the source and are kept apart here.

Experiments:
[1] = Water Vapour Sorption isotherm (25° C., DVS-Intrinsic); format: physicochemical; details: for water uptake levels: 25° C.
Method: DSC scan of trimeric form A1 was acquired on a Mettler-Toledo DSC 1 with a heating rate of 5 K/min, using nitrogen purge gas at 50 mL/min. TGA scan of trimeric form A1 was acquired on a Mettler-Toledo TGA 851 with a heating rate of 5 K/min, using nitrogen purge gas at 50 mL/min. […] Eur. Criteria (section 5.11.). Water Vapour Sorption isotherm was acquired on a DVS-Intrinsic system from SMS. […] Dissolution level of trimeric form A1 in Simulated Gastric Fluid [SGF, pH 1.2] at 37° C. was determined to be approximately 2.4 mg/mL after 2 h (see example 12).
DSC scan of hydrate form NF2 was acquired on a Mettler-Toledo DSC 1 with a heating rate of 5 K/min, using nitrogen purge gas at 50 mL/min. TGA scan of hydrate form NF2 was acquired on a Mettler-Toledo TGA 851 with a heating rate of 5 K/min, using nitrogen purge gas at 50 mL/min. […] Eur. Criteria (section 5.11.). Water Vapour Sorption isotherm was acquired on a DVS-Intrinsic system from SMS.
In the DSC, a phase transition to trimeric form A1 occurred above 150° C., and the trimeric A1 form has a melting peak onset greater than 220° C. […] DSC scan of the anhydrous form NF9 was acquired on a Mettler-Toledo DSC 1 with a heating rate of 5 K/min, using nitrogen purge gas at 50 mL/min. TGA scan of anhydrous form NF9 was acquired on a Mettler-Toledo TGA 851 with a heating rate of 5 K/min, using nitrogen purge gas at 50 mL/min. […] Eur. Criteria (section 5.11.). […] Water Vapour Sorption isotherm was acquired on a DVS-Intrinsic system from SMS.
This is followed by an exothermic event in the DSC, assigned to a phase transition to trimeric form A1. Finally, the melting of trimeric form A1 with melting peak onset at temperatures greater than 220° C. […] DSC scan of the hydrate of trimeric boronic acid adduct form NF7 was acquired on a Mettler-Toledo DSC 1 with a heating rate of 5 K/min, using nitrogen purge gas at 50 mL/min. TGA scan of the hydrate of trimeric boronic acid adduct form NF7 was acquired on a Mettler-Toledo TGA 851 with a heating rate of 5 K/min, using nitrogen purge gas at 50 mL/min. […] Eur. Criteria (section 5.11.). […]

[2] = Thermodynamic solubility (24 h) at 37° C.; format: physicochemical; details: for solubility thermodynamic at 24 h: 37 °C, thermodynamic from solid
Method: Approximately 10-20 mg of 1-(4-{[6-Amino-5-(4-phenoxy-phenyl)-pyrimidin-4-ylamino]-methyl}-4-fluoro-piperidin-1-yl)-propenone was weighed into a 4 mL glass vial. 1 mL of SGF medium (simulated gastric fluid, pH 1.2), FaSSIF medium (fasted state intestinal medium, pH 6.5), or USP Phosphate buffer pH 7.4 was added and the suspension was shaken for 24 h at 450 rpm at 37° C. After 1 hour, 6 hours and after 24 hours, the vials were checked for the presence of undissolved compound and the pH was measured. If necessary, the pH was adjusted after 1 hour and 6 hours. The solid liquid separation was carried out using 1 mL syringe and 0.2 μm syringe filter. Clear filtrate was analyzed by HPlC after suitable dilution to measure the amount of API dissolved.

[3] = molecular target: LMP7 subunit of the immunoproteasome (Homo sapiens, UniProt P20618+P28062); details: Singh et al, Br. J. Hematology 152(2): 155-163; cited from earlier work

| Structure (SMILES) | hygroscopicity classification according to Ph. Eur. Criteria (section 5.11.) [1] | water uptake levels ([1]; relative humidity range 0-80% rh) | water uptake levels ([1]; relative humidity range 90-98% rh) | Thermodynamic solubility FaSSIF pH 6.5 ([2]; Fasted-State Simulated Intestinal Fluid pH 6.5, 37° C., 24 h) | Thermodynamic solubility SGF pH 1.2 ([2]; Simulated Gastric Fluid pH 1.2, 37° C., 24 h) | solubility thermodynamic at 24 h ([2]; fasted-state simulated intestinal fluid (FaSSIF), pH 6.5, fassif, Fasted-State Simulated Intestinal Fluid pH 6.5, 37° C., 24 h, read-out: Thermodynamic solubility FaSSIF pH 6.5) | solubility in biorelevant media (in words) ([2]; listed as Hydrate form NF2) | solubility in biorelevant media (in words) ([2]; listed as hydrate form NF2) | solubility thermodynamic at 24 h ([2]; simulated gastric fluid (SGF), pH 1.2, simulated gastric fluid, Simulated Gastric Fluid pH 1.2, 37° C., 24 h, read-out: Thermodynamic solubility SGF pH 1.2) | selectivity as inhibitor of the LMP7 subunit [3] |
| --- | --- | --- | --- | --- | --- | --- | --- | --- | --- | --- |
| O=C(N[C@@H](Cc1coc2ccccc12)B(O)O)[C@@H]1C[C@H]2CC[C@@H]1O2 [Form NF2] | slightly hygroscopic | ≤ 1 % m/m | ≤ 5 % m/m | 0.7 mg/mL | 0.7 mg/mL | ~700 µg/mL (≈ 2130 µM) | highly soluble in biorelevant media | good solubility in biorelevant media | ~700 µg/mL (≈ 2130 µM) |  |
| CC1=C(C(=O)N[C@H](C)C(=O)N[C@@H](Cc2c[nH]c3ccccc23)C(=O)N[C@@H](Cc2ccccc2)C(=O)[C@@]2(C)CO2)Cc2ccccc21 [PR-924] |  |  |  |  |  |  |  |  |  | 100 fold |
